Laboratory results published in article PMC4121272, “Two β-Galactosidases from the Human Isolate Bifidobacterium breve DSM 20213: Molecular Cloning and Expression, Biochemical Characterization and Synthesis of Galacto-Oligosaccharides” (PLoS ONE, 2014).

Tests used:
[1] = biological target: T1, β-gal II (Bifidobacterium breve, UniProt D4BR09); assay: oNPG hydrolysis, o-nitrophenol release at […] nm, nonlinear regression; type: biochemical; conditions: competitive vs oNPG; 50 mM sodium phosphate pH 6.5, 30°C
T1 construct: gene BIFBRE_04539; full length, C-terminal His6 tag kept (pET-21a), E. coli T7 Express with GroEL/GroES, IMAC; calculated 116,594 Da; homodimer 211 kDa; GH2; N-terminus from primer MNTTDDQ, C-terminus before tag DVNLELI

[2] = biological target: T2, β-gal I (Bifidobacterium breve, UniProt D4BLG2); assay: as above; type: biochemical; conditions: competitive vs oNPG; 50 mM sodium phosphate pH 6.5, 30°C
T2 construct: gene BIFBRE_02894; full length, C-terminal His6 tag kept (pET-21a), E. coli T7 Express with GroEL/GroES, IMAC; calculated 116,127 Da; homodimer 220 kDa; GH2; N-terminus from primer MQGKAKT, C-terminus before tag DVTLELI
T2 sequence (D4BLG2 entry or part of it): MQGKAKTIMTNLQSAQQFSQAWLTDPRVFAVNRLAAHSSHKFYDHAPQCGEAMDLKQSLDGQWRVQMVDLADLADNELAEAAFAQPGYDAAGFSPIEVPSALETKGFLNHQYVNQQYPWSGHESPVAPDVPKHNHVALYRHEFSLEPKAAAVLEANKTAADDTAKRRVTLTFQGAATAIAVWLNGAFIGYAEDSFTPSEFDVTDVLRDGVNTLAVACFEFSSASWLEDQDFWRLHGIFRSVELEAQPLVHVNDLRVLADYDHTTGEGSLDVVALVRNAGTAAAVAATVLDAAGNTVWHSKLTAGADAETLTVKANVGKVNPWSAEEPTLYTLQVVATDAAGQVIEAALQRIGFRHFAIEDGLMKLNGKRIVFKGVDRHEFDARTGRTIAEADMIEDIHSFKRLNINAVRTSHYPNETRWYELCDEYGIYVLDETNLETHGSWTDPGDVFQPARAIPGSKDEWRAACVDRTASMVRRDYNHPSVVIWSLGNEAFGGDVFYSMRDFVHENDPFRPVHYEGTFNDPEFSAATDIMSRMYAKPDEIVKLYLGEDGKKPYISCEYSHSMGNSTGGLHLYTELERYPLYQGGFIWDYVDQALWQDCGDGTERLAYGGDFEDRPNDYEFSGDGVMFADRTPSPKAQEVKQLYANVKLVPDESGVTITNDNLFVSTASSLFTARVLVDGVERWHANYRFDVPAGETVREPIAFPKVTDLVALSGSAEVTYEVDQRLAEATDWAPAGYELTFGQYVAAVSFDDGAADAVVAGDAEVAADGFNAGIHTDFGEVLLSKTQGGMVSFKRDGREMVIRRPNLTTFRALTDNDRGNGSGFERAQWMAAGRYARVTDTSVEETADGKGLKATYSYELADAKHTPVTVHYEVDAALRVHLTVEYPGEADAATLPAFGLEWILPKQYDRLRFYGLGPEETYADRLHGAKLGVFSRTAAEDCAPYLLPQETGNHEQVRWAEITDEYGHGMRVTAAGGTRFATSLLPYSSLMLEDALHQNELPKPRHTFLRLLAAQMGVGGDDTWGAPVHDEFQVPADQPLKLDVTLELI

T1 sequence (D4BR09 entry or part of it): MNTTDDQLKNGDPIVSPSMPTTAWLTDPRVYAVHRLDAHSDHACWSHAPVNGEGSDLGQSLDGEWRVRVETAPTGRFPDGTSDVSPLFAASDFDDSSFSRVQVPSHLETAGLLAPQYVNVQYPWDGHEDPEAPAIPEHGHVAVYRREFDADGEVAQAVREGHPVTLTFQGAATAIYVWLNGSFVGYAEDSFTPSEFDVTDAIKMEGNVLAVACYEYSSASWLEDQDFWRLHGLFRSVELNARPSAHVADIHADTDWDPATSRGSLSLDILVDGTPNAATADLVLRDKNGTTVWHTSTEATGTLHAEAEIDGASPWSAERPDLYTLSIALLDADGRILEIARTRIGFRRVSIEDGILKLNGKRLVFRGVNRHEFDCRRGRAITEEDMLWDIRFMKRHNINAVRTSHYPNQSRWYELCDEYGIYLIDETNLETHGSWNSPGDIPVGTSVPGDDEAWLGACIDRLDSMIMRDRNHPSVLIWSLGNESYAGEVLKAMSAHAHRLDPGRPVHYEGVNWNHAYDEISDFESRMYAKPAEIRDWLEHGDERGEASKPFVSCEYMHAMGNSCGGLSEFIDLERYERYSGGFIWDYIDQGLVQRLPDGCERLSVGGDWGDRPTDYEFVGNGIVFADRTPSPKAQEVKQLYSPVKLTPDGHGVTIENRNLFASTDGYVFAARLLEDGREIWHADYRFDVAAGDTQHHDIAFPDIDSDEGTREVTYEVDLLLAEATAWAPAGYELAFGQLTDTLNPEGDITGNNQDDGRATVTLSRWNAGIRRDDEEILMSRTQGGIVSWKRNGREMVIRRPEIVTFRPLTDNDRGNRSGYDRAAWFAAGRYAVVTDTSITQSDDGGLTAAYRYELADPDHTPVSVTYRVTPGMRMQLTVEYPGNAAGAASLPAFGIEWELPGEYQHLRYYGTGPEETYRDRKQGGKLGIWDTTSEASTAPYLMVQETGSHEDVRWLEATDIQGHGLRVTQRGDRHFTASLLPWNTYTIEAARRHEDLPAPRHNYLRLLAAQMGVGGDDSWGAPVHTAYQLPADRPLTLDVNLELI

Structure (SMILES)	Ki [1] [mM]	Ki [2] [mM]
OC[C@H]1OC(O)[C@H](O)[C@@H](O)[C@H]1O (stereo partly drawn) [D-galactose]	34 ± 5	15 ± 3
OC[C@H]1OC(O)[C@H](O)[C@@H](O)[C@@H]1O (stereo partly drawn) [D-glucose]	37 ± 4	–
